Patent US10758534B2 (Vertex Pharmaceuticals Incorporated, priority 2014, dated 2020)

Each molecule was assayed against T1, F508del (Homo sapiens, UniProt P13569, DEL508-508) (assay: Protocol 2: FRET membrane potential optical assay (VIPR), identification of correction compounds). Details: Table 3; compounds of Table 1 as modulators of CFTR activity; protocol not stated.
T1 construct: expressed in transfected cells
Assay type: cell-based
In short: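 Single-addition HTS format: F508del-expressing NIH3T3 cells pre-incubated 16 hrs at 37° C. ± compound, with 27° C. culture as positive control. Channel activation by forskolin 10 μM and genistein 20 μM upon switch to gluconate bath, pH 7.4; read-out is FRET-based depolarization signal.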

T1 sequence (P13569 with tags, fused parts or gaps DEL508-508): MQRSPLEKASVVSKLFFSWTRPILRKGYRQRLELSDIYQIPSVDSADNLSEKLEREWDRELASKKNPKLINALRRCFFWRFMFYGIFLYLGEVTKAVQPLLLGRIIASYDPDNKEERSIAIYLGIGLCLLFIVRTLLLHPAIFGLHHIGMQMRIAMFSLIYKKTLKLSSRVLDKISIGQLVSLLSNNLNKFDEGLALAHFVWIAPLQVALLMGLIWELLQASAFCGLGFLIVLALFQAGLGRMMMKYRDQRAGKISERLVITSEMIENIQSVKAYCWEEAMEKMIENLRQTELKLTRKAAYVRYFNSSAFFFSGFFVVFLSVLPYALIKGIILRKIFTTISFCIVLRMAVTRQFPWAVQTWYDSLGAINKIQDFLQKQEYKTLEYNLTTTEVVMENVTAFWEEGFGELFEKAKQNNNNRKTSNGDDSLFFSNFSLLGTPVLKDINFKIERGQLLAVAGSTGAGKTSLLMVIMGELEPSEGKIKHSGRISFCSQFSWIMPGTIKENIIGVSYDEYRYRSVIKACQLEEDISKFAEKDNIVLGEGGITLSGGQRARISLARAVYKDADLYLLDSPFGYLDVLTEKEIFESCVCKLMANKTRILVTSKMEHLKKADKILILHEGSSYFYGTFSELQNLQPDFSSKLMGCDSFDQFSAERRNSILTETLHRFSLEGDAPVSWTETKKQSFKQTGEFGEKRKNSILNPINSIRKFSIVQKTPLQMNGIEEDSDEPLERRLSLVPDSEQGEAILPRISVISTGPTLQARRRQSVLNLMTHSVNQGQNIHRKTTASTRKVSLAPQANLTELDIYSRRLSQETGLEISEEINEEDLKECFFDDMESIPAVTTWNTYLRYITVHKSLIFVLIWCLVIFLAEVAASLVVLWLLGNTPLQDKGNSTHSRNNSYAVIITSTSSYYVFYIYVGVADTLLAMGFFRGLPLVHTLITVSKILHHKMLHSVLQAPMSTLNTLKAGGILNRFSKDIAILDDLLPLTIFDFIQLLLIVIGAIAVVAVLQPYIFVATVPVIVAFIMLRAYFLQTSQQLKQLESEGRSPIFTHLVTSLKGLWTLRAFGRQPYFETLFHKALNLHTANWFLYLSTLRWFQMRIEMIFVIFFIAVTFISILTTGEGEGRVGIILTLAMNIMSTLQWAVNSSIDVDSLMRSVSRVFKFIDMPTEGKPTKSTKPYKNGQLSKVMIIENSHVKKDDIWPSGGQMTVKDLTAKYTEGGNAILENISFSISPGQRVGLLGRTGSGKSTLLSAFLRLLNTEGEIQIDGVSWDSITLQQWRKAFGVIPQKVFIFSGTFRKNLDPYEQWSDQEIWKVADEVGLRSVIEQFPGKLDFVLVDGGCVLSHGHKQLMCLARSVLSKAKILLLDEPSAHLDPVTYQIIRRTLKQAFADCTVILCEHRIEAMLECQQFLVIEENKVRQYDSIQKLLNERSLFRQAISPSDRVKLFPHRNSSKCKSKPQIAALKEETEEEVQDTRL

EC30 | Structure (SMILES)
+++ (“+++” means <3 uM) | Cc1cc(C)c(Oc2nc(C(C)(C)C)ccc2C(=O)NS(=O)(=O)c2ccccn2)c(C)c1 [Compound 222, 6-tert-butyl-N-(2-pyridylsulfonyl)-2-(2,4,6-trimethylphenoxy)pyridine-3-carboxamide]
+++ (“+++” means <3 uM) | CC(C)(C)c1ccc(C(=O)NS(=O)(=O)c2cccc(N)c2)c(-c2ccc(Cl)cc2)n1 [Compound 223, N-(3-aminophenyl)sulfonyl-6-tert-butyl-2-(4-chlorophenyl)pyridine-3-carboxamide]
+++ (“+++” means <3 uM) | Cc1cc(C)c(Oc2cc(C(C)(C)C)ccc2C(=O)NS(=O)(=O)c2cccc(N)c2)c(C)c1 [Compound 224, N-(3-aminophenyl)sulfonyl-4-tert-butyl-2-(2,4,6-trimethylphenoxy)benzamide]
+++ (“+++” means <3 uM) | Cc1cccc(C)c1Cn1nc(-c2cccc(OC(F)(F)F)c2)cc1C(=O)NS(=O)(=O)c1ccccc1 [Compound 225, N-(benzenesulfonyl)-2-[(2,6-dimethylphenyl)methyl]-5-[3-(trifluoromethoxy)phenyl]pyrazole-3-carboxamide]
+++ (“+++” means <3 uM) | Cc1cc(C)c(Oc2nc(C(C)(C)C)ccc2C(=O)NS(=O)(=O)c2nc(N)ccc2F)c(C)c1 [Compound 226, N-[(6-Amino-3-fluoro-2-pyridyl)sulfonyl]-6-tert-butyl-2-(2,4,6-trimethylphenoxy)pyridine-3-carboxamide]
++ (“++” means between 3 uM and 10 uM) | Cc1cc(C)c(Cn2c(C(=O)NS(=O)(=O)c3ccncc3)cc3ccccc32)c(C)c1 [Compound 227, N-(4-pyridylsulfonyl)-1-[(2,4,6-trimethylphenyl)methyl]indole-2-carboxamide]
+++ (“+++” means <3 uM) | Cc1cc(C)c(Oc2nc(C(C)(C)C)ccc2C(=O)NS(=O)(=O)c2cccc(N)n2)c(C)c1 [Compound 228, N-[(6-amino-2-pyridyl)sulfonyl]-6-tert-butyl-2-(2,4,6-trimethylphenoxy)pyridine-3-carboxamide]
+++ (“+++” means <3 uM) | CC(C)(C)c1cccc(-c2nc(C(C)(C)C)ccc2C(=O)NS(=O)(=O)c2cccc(N)c2)c1 [Compound 229, N-(3-aminophenyl)sulfonyl-6-tert-butyl-2-(3-tert-butylphenyl)pyridine-3-carboxamide]
++ (“++” means between 3 uM and 10 uM) | Cc1cc(C)c(CN2Cc3ccccc3C2C(=O)NS(=O)(=O)c2ccccc2N)c(C)c1 (stereo not drawn) [Compound 230, N-(2-aminophenyl)sulfonyl-2-[(2,4,6-trimethylphenyl)methyl]isoindoline-1-carboxamide]
+++ (“+++” means <3 uM) | Cc1cc(C)c(Oc2nc(-c3ccccc3)ccc2C(=O)NS(=O)(=O)c2cccc(N)c2)c(C)c1 [Compound 231, N-(3-aminophenyl)sulfonyl-6-phenyl-2-(2,4,6-trimethylphenoxy)pyridine-3-carboxamide]
+++ (“+++” means <3 uM) | Cc1cc(C)c(Cn2c(C(=O)NS(=O)(=O)c3ccccc3)c(C)c3ccccc32)c(C)c1 [Compound 232, N-(benzenesulfonyl)-3-methyl-1-[(2,4,6-trimethylphenyl)methyl]indole-2-carboxamide]
+++ (“+++” means <3 uM) | CC(C)Oc1ccc(-c2ccc(C(=O)NS(=O)(=O)c3cccc(N)n3)c(N3CCCC(c4ccccc4)C3)n2)cn1 (stereo not drawn) [Compound 233, N-[(6-amino-2-pyridyl)sulfonyl]-6-(6-isopropoxy-3-pyridyl)-2-[-3-phenyl-1-piperidyl]pyridine-3-carboxamide]
+++ (“+++” means <3 uM) | Cc1cc(C)c(Oc2nc(-c3ccc(Cl)cc3)ccc2C(=O)NS(=O)(=O)c2cccc(N)n2)c(C)c1 [Compound 234, N-[(6-amino-2-pyridyl)sulfonyl]-6-(4-chlorophenyl)-2-(2,4,6-trimethylphenoxy)pyridine-3-carboxamide]
+++ (“+++” means <3 uM) | Cc1cc(C)c(Oc2nc(C(C)(C)C)ccc2C(=O)NS(=O)(=O)c2cccnc2N)c(C)c1 [Compound 235, N-[(2-amino-3-pyridyl)sulfonyl]-6-tert-butyl-2-(2,4,6-trimethylphenoxy)pyridine-3-carboxamide]
++ (“++” means between 3 uM and 10 uM) | Cc1cc(C)c(CN2C[C@@H](c3ccccc3)C[C@H]2C(=O)NS(=O)(=O)c2cccc(N)n2)c(C)c1 [Compound 236, (2S,4R)—N-[(6-Amino-2-pyridyl)sulfonyl]-4-phenyl-1-[(2,4,6-trimethylphenyl)methyl]pyrrolidine-2-carboxamide]
++ (“++” means between 3 uM and 10 uM) | Cc1cc(F)cc(-c2nc(C(C)(C)C)ccc2C(=O)NS(=O)(=O)c2cccc(N)c2)c1 [Compound 237, N-(3-aminophenyl)sulfonyl-6-tert-butyl-2-(3-fluoro-5-methyl-phenyl)pyridine-3-carboxamide]
+++ (“+++” means <3 uM) | CC(C)(C)c1cc(C(=O)NS(=O)(=O)c2cccc(N)c2)n(Cc2c(F)cccc2C(F)(F)F)n1 [Compound 239, N-(3-aminophenyl)sulfonyl-5-tert-butyl-2-[[2-fluoro-6-(trifluoromethyl)phenyl]methyl]pyrazole-3-carboxamide]
++ (“++” means between 3 uM and 10 uM) | Cc1cc(C)c(Oc2nc3ccccc3cc2C(=O)NS(=O)(=O)c2ccncc2)c(C)c1 [Compound 240, N-(4-pyridylsulfonyl)-2-(2,4,6-trimethylphenoxy)quinoline-3-carboxamide]
+++ (“+++” means <3 uM) | COc1ccc2c(c1)cc(C(=O)NS(=O)(=O)c1ccccc1)n2Cc1c(C)cc(C)cc1C [Compound 241, N-(benzenesulfonyl)-5-methoxy-1-[(2,4,6-trimethylphenyl)methyl]indole-2-carboxamide]
+++ (“+++” means <3 uM) | Cc1cc(C)c(Cn2cc(C(C)(C)C)cc2C(=O)NS(=O)(=O)c2ccccc2)c(C)c1 [Compound 242, N-(benzenesulfonyl)-4-tert-butyl-1-[(2,4,6-trimethylphenyl)methyl]pyrrole-2-carboxamide]
+++ (“+++” means <3 uM) | Cc1cccc(C)c1Oc1nc(C(F)(F)F)ccc1C(=O)NS(=O)(=O)c1cccc(N)c1 [Compound 243, N-(3-aminophenyl)sulfonyl-2-(2,6-dimethylphenoxy)-6-(trifluoromethyl)pyridine-3-carboxamide]
+++ (“+++” means <3 uM) | Cc1cc(C)c(Oc2nc(C(F)(F)F)ccc2C(=O)NS(=O)(=O)c2ccccc2)c(C)c1 [Compound 244, N-(benzenesulfonyl)-6-(trifluoromethyl)-2-(2,4,6-trimethylphenoxy)pyridine-3-carboxamide]
++ (“++” means between 3 uM and 10 uM) | Cn1ccc2c(Cn3nc(C(C)(C)C)cc3C(=O)NS(=O)(=O)c3ccccc3)cccc21 [Compound 245, N-(benzenesulfonyl)-5-tert-butyl-2-[(1-methylindol-4-yl)methyl]pyrazole-3-carboxamide]

Structure (SMILES) | EC30
Cc1cc(C)c(Oc2nc(-c3ccc(Cl)c(OCC(C)C)c3)ccc2C(=O)NS(=O)(=O)c2cccc(N)n2)c(C)c1 [Compound 238, N-[(6-amino-2-pyridyl)sulfonyl]-6-(4-chloro-3-isobutoxy-phenyl)-2-(2,4,6-trimethylphenoxy)pyridine-3-carboxamide] | +++ (“+++” means <3 uM)
